# Data as given in PMC4730192, “Ligand selectivity in tachykinin and natalisin neuropeptidergic systems of the honey bee parasitic mite Varroa destructor” (Scientific Reports, 2016).
# No end group written: not given here.
# Experiments:
# [1] = biological target: T1, V. destructor TRP receptor (VdTRP-R) (Varroa destructor, UniProt A0A141CIT9); assay: Aequorin calcium-mobilization reporter assay, VdTRP-R transiently expressed in CHO-K1 cells with Ga16; format: cell-based; settings: for EC50: CHO-K1 cells, Ga16 + aequorin luminescence, 10-fold serial dilutions, logistic fitting of dose-response curves; for Agonistic activity, VdTRP-R 0.1μM: ligand 0.1 μM; for Agonistic activity, VdTRP-R 0.1μM / Agonistic activity, VdTRP-R 1μM: relative luminescence normalized by highest activity of endogenous ligand VdTRP3, 3 biological replications; for Agonistic activity, VdTRP-R 1μM: ligand 1 μM; for Receptor specificity among VdNTL-R, VdTRP-R and AmTRP-R (in words): expanded ligand test at two concentrations on the three receptors
# T1 sequence (A0A141CIT9 1-437): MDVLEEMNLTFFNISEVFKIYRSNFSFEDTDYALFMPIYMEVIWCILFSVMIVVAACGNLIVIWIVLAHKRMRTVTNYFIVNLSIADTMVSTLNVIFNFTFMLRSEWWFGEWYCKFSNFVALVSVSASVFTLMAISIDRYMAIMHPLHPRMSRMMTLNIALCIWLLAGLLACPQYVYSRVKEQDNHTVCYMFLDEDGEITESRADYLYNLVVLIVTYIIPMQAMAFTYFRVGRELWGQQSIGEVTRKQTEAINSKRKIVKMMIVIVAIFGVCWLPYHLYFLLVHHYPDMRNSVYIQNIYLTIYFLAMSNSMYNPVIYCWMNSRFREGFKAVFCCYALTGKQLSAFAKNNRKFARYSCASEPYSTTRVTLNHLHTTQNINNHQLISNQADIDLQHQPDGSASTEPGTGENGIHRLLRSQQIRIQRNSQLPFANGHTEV
# From the text: (§1) In this system, ligand-mediated G-protein-coupled receptor (GPCR) activation initiates calcium mobilization that is indicated by the increased luminescence of aequorin.
# (§2) The PCR amplicons of the full open reading frames (ORFs) of the three receptors were initially cloned into the pGEMT easy vector (Promega) and transferred to the expression vector pcDNA3.1(+) (Invitrogen) using the common restriction enzymes in the multi-cloning site (EcoRI for AmTRPR, NotI for both VdNTLR and VdTRPR). The sequences of the inserts were confirmed by Sanger sequencing prior to heterologous expression. High-quality plasmid DNA prepared using the plasmid MIDIprep kit (Qiagen) was used for transient transfection. The methods for transient expression of aequorin and G-alpha16 in Chinese hamster ovary (CHO-K1) cells and the procedures for the assays were previously described. Thirty hours after the transfection, the cells were collected and preincubated with the coelenterazine (Invitrogen) for the functional assay as previously described. Serial dilutions (10-fold, ranging from 0.001 to 1000 nM) of the 10 endogenous ligands were used for treatment of the cells. These ten natural ligands included two […] and three […] predicted from the respective putative precursors and also included five AmTRP peptides. The elevated luminescence caused by intracellular calcium mobilization was measured for a continuous 20 seconds at every 100-ms interval. Dose response curves and EC50s of each ligand for each receptor were obtained by logistic fitting in Origin 8.6 (OriginLab).
# (§3) The test ligands were mainly the NTL peptides of T. castaneum, D. melanogaster, B. mori, and Anopheles gambiae and two TRPs, TcTRP4 and DmTRP6. Two doses of each ligand were tested for each receptor: 1 and 0.1 μM for VdNTL-R and VdTRP-R and 1 and 0.01 μM for AmTRP-R.
# [2] = biological target: T2, A. mellifera TRP receptor (AmTRP-R) (Apis mellifera, UniProt A0ACM8RFV8); assay: Aequorin calcium-mobilization reporter assay, AmTRP-R transiently expressed in CHO-K1 cells with Ga16; format: cell-based; settings: for EC50: CHO-K1 cells, Ga16 + aequorin luminescence, 10-fold serial dilutions, logistic fitting of dose-response curves; for Agonistic activity, AmTRP-R 0.01μM: ligand 0.01 μM; for Agonistic activity, AmTRP-R 0.01μM / Agonistic activity, AmTRP-R 1μM: relative luminescence normalized by highest activity of endogenous ligand AmTRP1, 3 biological replications; for Agonistic activity, AmTRP-R 1μM: ligand 1 μM; for Agonistic activity on AmTRP-R (in words): dose-response or expanded ligand test, 1 and 0.01 μM
# T2 sequence (A0ACM8RFV8 1-421): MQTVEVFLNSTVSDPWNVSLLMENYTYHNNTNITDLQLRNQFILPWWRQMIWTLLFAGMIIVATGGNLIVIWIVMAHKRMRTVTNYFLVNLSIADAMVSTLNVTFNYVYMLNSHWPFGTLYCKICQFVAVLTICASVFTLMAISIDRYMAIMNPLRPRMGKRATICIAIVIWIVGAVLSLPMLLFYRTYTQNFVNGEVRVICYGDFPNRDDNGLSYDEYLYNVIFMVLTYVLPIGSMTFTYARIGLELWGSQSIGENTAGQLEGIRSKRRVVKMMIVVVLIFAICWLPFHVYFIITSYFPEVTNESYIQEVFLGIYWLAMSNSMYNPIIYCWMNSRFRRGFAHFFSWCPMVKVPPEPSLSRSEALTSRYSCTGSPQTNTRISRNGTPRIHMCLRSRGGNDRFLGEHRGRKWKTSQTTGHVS
# From the text: as §1, §2, §3
# [3] = biological target: T3, V. destructor NTL receptor (VdNTL-R) (Varroa destructor, UniProt A0A141CIT8); assay: Aequorin calcium-mobilization reporter assay, VdNTL-R transiently expressed in CHO-K1 cells with Ga16; format: cell-based; settings: for Agonistic activity, VdNTL-R 1μM: ligand 1 μM; for Agonistic activity, VdNTL-R 1μM / Agonistic activity, VdNTL-R 0.1μM: relative luminescence normalized by highest activity of endogenous ligand VdNTL1, 3 biological replications; for Agonistic activity, VdNTL-R 0.1μM: ligand 0.1 μM; for EC50: CHO-K1 cells, Ga16 + aequorin luminescence, 10-fold serial dilutions, logistic fitting of dose-response curves
# T3 sequence (A0A141CIT8 1-461): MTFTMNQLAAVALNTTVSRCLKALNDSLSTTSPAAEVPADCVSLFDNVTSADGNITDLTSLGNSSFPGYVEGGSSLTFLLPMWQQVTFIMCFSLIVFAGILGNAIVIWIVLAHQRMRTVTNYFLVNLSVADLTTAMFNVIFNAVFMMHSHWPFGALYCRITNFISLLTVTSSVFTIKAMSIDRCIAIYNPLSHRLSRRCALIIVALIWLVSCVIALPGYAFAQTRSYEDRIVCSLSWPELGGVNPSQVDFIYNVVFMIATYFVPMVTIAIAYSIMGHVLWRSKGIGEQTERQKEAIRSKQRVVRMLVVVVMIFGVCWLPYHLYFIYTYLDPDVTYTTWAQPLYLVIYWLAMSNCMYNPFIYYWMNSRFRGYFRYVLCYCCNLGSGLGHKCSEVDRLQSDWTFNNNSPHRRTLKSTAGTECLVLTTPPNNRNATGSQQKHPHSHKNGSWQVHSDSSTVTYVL
# From the text: as §1, §2, §3
# [4] = test system: cockroach TRP myotropic bioassay; settings: cited from earlier work
# [5] = test system: pea aphid Acyrthosiphon pisum; settings: by feeding; cited from earlier work
# [6] = expanded ligand test, 1 and 0.1 μM
substance,measurement,setting,value
AAPFHAMR-NH2 [VdTRP2],EC50,[1],71 nM
same,EC50,[2],95 nM
AFHAMR-NH2 [VdTRP1],EC50,[1],55 nM
same,EC50,[2],95 nM
ALMGFQGVR-NH2 [AmTRP1],"Agonistic activity, VdNTL-R 1μM",[3],37.1 RLU
same,"Agonistic activity, VdTRP-R 0.1μM",[1],2.5 RLU
same,"Agonistic activity, VdTRP-R 1μM",[1],34.9 RLU
same,EC50,[2],0.3 nM
same,"Agonistic activity, AmTRP-R 0.01μM",[2],69 RLU
same,"Agonistic activity, AmTRP-R 1μM",[2],100 RLU
"APMGFQGMR-NH2 [AmTRP2,3]",EC50,[1],250 nM
"ASGQEEFGPFWANRa [TcNTL1, NTL peptide of T. castaneum]","Agonistic activity, VdNTL-R 0.1μM",[3],1 RLU
same,"Agonistic activity, VdNTL-R 1μM",[3],1.5 RLU
same,"Receptor specificity among VdNTL-R, VdTRP-R and AmTRP-R (in words)",[1],specifically activated only VdTRP-R
same,"Agonistic activity, VdTRP-R 0.1μM",[1],2.2 RLU
same,"Agonistic activity, VdTRP-R 1μM",[1],60.7 RLU
same,"Agonistic activity, AmTRP-R 0.01μM",[2],4.6 RLU
same,"Agonistic activity, AmTRP-R 1μM",[2],-0.2 RLU
"DLRQENDPFWGNR-NH2 [BmNTL3, NTL peptide of B. mori]","Agonistic activity, VdNTL-R 0.1μM",[3],0.4 RLU
same,"Agonistic activity, VdNTL-R 1μM",[3],0.1 RLU
same,"Receptor specificity among VdNTL-R, VdTRP-R and AmTRP-R (in words)",[1],specifically activated only VdTRP-R
same,"Agonistic activity, VdTRP-R 0.1μM",[1],30.7 RLU
same,"Agonistic activity, VdTRP-R 1μM",[1],83.4 RLU
same,"Agonistic activity, AmTRP-R 0.01μM",[2],4.7 RLU
same,"Agonistic activity, AmTRP-R 1μM",[2],-0.8 RLU
GGVPGFVGAR-NH2 [VdNTL2],EC50,[3],37 nM
same,EC50,[2],0.7 nM
same,Agonistic activity on AmTRP-R (in words),[2],equally potent as the AmTRPs
"GSFFGMR-NH2 [VdTRP3, GSFFGMRa]","Agonistic activity, VdNTL-R 1μM",[3],24.8 RLU
same,EC50,[1],4.3 nM
same,"Agonistic activity, VdTRP-R 0.1μM",[1],107.6 RLU
same,"Agonistic activity, VdTRP-R 1μM",[1],100 RLU
same,EC50,[2],13 nM
same,"Agonistic activity, AmTRP-R 0.01μM",[2],58 RLU
same,"Agonistic activity, AmTRP-R 1μM",[2],96.3 RLU
"HRNLFQVDDPFFATRa [DmNTL4, NTL peptide of D. melanogaster]","Agonistic activity, VdNTL-R 0.1μM",[3],0.8 RLU
same,"Agonistic activity, VdNTL-R 1μM",[3],30.4 RLU
same,"Agonistic activity, VdTRP-R 0.1μM",[1],10.3 RLU
same,"Agonistic activity, VdTRP-R 1μM",[1],70.9 RLU
same,"Agonistic activity, AmTRP-R 0.01μM",[2],9.5 RLU
same,"Agonistic activity, AmTRP-R 1μM",[2],79.7 RLU
"LQLRDLYNADDPFVPNRa [DmNTL5, NTL peptide of D. melanogaster]","Agonistic activity, VdNTL-R 0.1μM",[3],0.2 RLU
same,"Agonistic activity, VdNTL-R 1μM",[3],0.1 RLU
same,"Agonistic activity, VdTRP-R 0.1μM",[1],0.7 RLU
same,"Agonistic activity, VdTRP-R 1μM",[1],3.1 RLU
same,"Agonistic activity, AmTRP-R 0.01μM",[2],6.5 RLU
same,"Agonistic activity, AmTRP-R 1μM",[2],-1.2 RLU
NPRWEFRGKFVGVR-NH2 [AmTRP7],EC50,[1],93 nM
same,Lower sensitivity of VdTRP-R relative to VdTRP3,[1]; fold lower sensitivity versus VdTRP3,> 10 ×
same,EC50,[2],0.8 nM
SIGGPAPGFVGAR-NH2 [VdNTL1],EC50,[3],26 nM
same,"Agonistic activity, VdNTL-R 0.1μM",[3],96.2 RLU
same,"Agonistic activity, VdNTL-R 1μM",[3],100 RLU
same,"Agonistic activity, VdTRP-R 0.1μM",[1],1.3 RLU
same,"Agonistic activity, VdTRP-R 1μM",[1],18.6 RLU
same,EC50,[2],4.5 nM
same,Difference in activity on AmTRP-R between VdNTL1 and VdNTL2,[2]; VdNTL1 compared with VdNTL2,approximately 6 ×
same,"Agonistic activity, AmTRP-R 0.01μM",[2],60.2 RLU
same,"Agonistic activity, AmTRP-R 1μM",[2],98.4 RLU
"TEENPFWANR-NH2 [BmNTL5, NTL peptide of B. mori]","Agonistic activity, VdNTL-R 0.1μM",[3],0.3 RLU
same,"Agonistic activity, VdNTL-R 1μM",[3],0.4 RLU
same,"Receptor specificity among VdNTL-R, VdTRP-R and AmTRP-R (in words)",[1],specifically activated only VdTRP-R
same,"Agonistic activity, VdTRP-R 0.1μM",[1],7.3 RLU
same,"Agonistic activity, VdTRP-R 1μM",[1],61.2 RLU
same,"Agonistic activity, AmTRP-R 0.01μM",[2],6 RLU
same,"Agonistic activity, AmTRP-R 1μM",[2],-0.2 RLU
pQA[Aib]SGFL[Aib]VRamide [compound 1888],Agonistic activity on VdNTL-R (in words),[3]; [6],failing to show agonistic activity
same,"Agonistic activity, VdNTL-R 0.1μM",[3],-0.4 RLU
same,"Agonistic activity, VdNTL-R 1μM",[3],1.9 RLU
same,Agonistic activity on VdTRP-R (in words),[1]; [6],failing to show agonistic activity
same,"Agonistic activity, VdTRP-R 0.1μM",[1],0.3 RLU
same,"Agonistic activity, VdTRP-R 1μM",[1],1 RLU
same,Agonistic activity on AmTRP-R (in words),[2],some activity
same,"Agonistic activity, AmTRP-R 0.01μM",[2],-0.4 RLU
same,"Agonistic activity, AmTRP-R 1μM",[2],62.9 RLU
same,Activity in a cockroach TRP myotropic bioassay,[4],highly potent activity
same,Oral aphicidal activity,[5],potent oral aphicidal activity
